Marks after values point to notes of the source that are not given here.
Test system: rats contaminated with ^241Am
Test: Radionuclide decorporation efficacy study in rats contaminated with 241Am (Example 10): excretion, tissue content, liver and skeleton burden
Format: in vivo, SD rats
Method: All animal studies were conducted according to a protocol approved by the University of North Carolina at Chapel Hill Institutional Animal Care and Use Committee (IACUC). Ten-week-old adult female SD rats weighing from 200 to 300 g were used in these studies (Charles River Labs, Raleigh, N.C.). Food and water were given ad libitum. The animal room was kept at a controlled temperature (23° C.) and light cycle (light exposure from 8 AM to 8 PM). For the duration of the study, the rats were housed in metabolic cages individually with daily urine and feces collection until euthanasia on Day 7.
To evaluate the efficacy of transdermal delivery of the C2E5 nonaqueous gel, a radionuclide decorporation efficacy study was conducted in rats contaminated with ^241Am. Adult female SD rats were anesthetized with 2-3% isoflurane. Dorsal skin between the cervical vertebrae and anterior thoracic vertebrae was clipped with caution before all animals were contaminated with [^241Am]-Americium nitrate solution (250 nCi, 0.1 mL) via an i.m. injection in anterior thigh muscle. The C2E5 nonaqueous gel was applied at dose of 1000 mg/kg using a cotton swap to a 6 cm^2 (2 cm×3 cm) area of the clipped dorsal region immediately after contamination. A jacket with plastic dorsal insert (VWR International) was placed on the rat to protect the gel application region. The mass of C2E5 gel applied was recorded for each animal to permit the actual dose determination. The animals were housed in metabolic cages individually after C2E5 treatment and were euthanized 7 days after contamination. Positive and negative controls included animals administered Ca-DTPA intravenously and animals without any treatment. The animals were observed once daily and their body weights recorded at pre-dose and prior to necropsy, Urine and feces were collected daily until euthanasia, when the liver, kidneys, both femurs and the muscle tissue from around the injection site were also collected. Cage washes were collected at the end of each experiment. As ˜35% of the decay of ^241Am is associated with photon emissions of 59.7 keV, ^241Am present in samples was quantified using a gamma counter (2470 Wizard 2, Perkin Elmer). The samples were counted for one minute using a 40-80 keV energy detection window and were background-corrected. Additionally, ^241Am activity was quantified in 2×0.1 mL aliquots of the dosing solution. For all samples, ^241Am content was expressed as a percentage of the initial dose.
where % ID represents the percent of injected dose. Where data for both femurs were available, an estimate of the total skeletal burden was made using the method of Volf with modification in which the counts in the contra-lateral femur were multiplied by 19 and added to the counts in the ipsi-lateral femur. The modification for the literature method was due to higher ^241Am content in ipsi-lateral femur as a result of i.m. injection in anterior thigh muscle.
Statistically significant differences among groups were determined using one-way ANOVA with Tukey's post hoc comparison. All measurements are expressed as mean±standard deviation (S.D.). The level of significance was set at p<0.05.

[1] = rats, seven days following a single dose, Ca-DTPA 14 mg/kg i.v., C2E5 1000 mg/kg transdermal
[2] = seven days after single dose, Ca-DTPA 14 mg/kg i.v., C2E5 1000 mg/kg transdermal gel

O=C([O-])CN(CCN(CC(=O)[O-])CC(=O)[O-])CCN(CC(=O)[O-])CC(=O)[O-].[Ca+2].[Na+].[Na+].[Na+] [Ca-DTPA, reference compound]
time of peak ^241Am excretion (14 mg/kg i.v.): ≤ 24 h
Skeleton Burden (% of ID) (contra-lateral femur × 19 + ipsi-lateral femur, rats, seven days following a single dose, Ca-DTPA 14 mg/kg i.v. (n = 3), C2E5 1000 mg/kg transdermal): 11.6 ± 2.2^b % of ID
Ipsi-lateral femur content of 241Am (rats, seven days following a single dose, Ca-DTPA 14 mg/kg i.v. (one animal excluded), C2E5 1000 mg/kg transdermal): 0.88 ± 0.18^c % of ID of ^241Am
% of Reduction over control (liver burden) [1]: 38.2%
% of Reduction over control (skeleton burden) [1]: 29.3%
Contra-lateral femur content of 241Am [1]: 0.57 ± 0.09 % of ID of ^241Am
Kidney content of 241Am [1]: 0.55 ± 0.03 % of ID of ^241Am
Liver Burden (% of ID) [1]: 10.2 ± 2.7 % of ID
Liver content of 241Am [1]: 10.2 ± 2.7 % of ID of ^241Am
Muscle-contra content of 241Am [1]: 0.0054 ± 0.0028 % of ID of ^241Am per gram of muscle-contra
Muscle-ipsi content of 241Am [1]: 40.0 ± 8.5 % of ID of ^241Am
Pelt at injection site content of 241Am [1]: 0.43 ± 0.24 % of ID of ^241Am
Total decorporation (% of ID of 241Am) [1]: 24.5 ± 3.5 % of ID of ^241Am
reduction of liver burden of ^241Am versus control group (seven days after single dose, Ca-DTPA 14 mg/kg i.v., C2E5 1000 mg/kg transdermal): 38.2%
% of Enhanced decorporation over control [2]: 255.3%
Cumulative excretion of ^241Am In feces [2]: 6.1 ± 1.1 % of ID
Cumulative excretion of ^241Am In urine [2]: 18.3 ±2.5 % of ID
Cumulative excretion of ^241Am Total [2]: 24.5 ± 3.5 % of ID

From US20140243411A1 (priority 2011, published 2014)
